Laboratory results reported in patent US10077237B2 (Sanofi, priority 2013, dated 2018).
Where “and” joins values, the source holds several entries; their conditions need not be identical. Identical values can stand only once. Counter-ions that a name gives are not always drawn.

Target: T1, recombinant human AMPK complex, containing α2β1γ2 (Homo sapiens, UniProt P54646+Q9Y478)
T1 construct: hsAMPKα2-552-His, hsAMPKβ1-2-270 and hsAMPKγ-2-569 respectively; hsAMPKβ1-2-270; hsAMPKγ-2-569; His (C); made in house; host or cells: Spodoptera frugiperda Sf21 (baculovirus)
T1 sequence (P54646 2-552): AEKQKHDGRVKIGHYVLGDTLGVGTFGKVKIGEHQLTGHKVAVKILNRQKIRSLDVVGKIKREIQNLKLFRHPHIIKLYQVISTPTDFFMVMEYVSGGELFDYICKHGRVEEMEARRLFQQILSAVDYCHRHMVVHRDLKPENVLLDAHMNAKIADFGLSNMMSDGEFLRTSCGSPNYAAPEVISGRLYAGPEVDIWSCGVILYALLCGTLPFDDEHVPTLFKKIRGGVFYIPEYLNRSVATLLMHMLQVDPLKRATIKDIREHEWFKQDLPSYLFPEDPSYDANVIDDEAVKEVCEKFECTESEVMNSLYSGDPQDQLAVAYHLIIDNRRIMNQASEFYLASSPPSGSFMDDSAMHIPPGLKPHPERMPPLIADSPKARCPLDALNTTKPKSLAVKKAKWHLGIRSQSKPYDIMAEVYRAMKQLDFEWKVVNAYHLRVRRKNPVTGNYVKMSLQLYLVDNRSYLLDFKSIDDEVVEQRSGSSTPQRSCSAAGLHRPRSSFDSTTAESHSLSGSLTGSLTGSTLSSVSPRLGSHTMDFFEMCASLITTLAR
T1 sequence (Q9Y478 2-270): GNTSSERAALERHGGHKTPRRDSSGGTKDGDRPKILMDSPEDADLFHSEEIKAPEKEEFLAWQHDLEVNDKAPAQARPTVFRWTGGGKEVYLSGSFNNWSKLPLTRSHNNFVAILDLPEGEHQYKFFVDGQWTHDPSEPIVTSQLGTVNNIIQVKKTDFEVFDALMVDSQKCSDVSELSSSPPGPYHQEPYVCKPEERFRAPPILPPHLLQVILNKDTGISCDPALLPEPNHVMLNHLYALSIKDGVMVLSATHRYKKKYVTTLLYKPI
T1 sequence (Q9UGJ0 2-569 partner limits assumed): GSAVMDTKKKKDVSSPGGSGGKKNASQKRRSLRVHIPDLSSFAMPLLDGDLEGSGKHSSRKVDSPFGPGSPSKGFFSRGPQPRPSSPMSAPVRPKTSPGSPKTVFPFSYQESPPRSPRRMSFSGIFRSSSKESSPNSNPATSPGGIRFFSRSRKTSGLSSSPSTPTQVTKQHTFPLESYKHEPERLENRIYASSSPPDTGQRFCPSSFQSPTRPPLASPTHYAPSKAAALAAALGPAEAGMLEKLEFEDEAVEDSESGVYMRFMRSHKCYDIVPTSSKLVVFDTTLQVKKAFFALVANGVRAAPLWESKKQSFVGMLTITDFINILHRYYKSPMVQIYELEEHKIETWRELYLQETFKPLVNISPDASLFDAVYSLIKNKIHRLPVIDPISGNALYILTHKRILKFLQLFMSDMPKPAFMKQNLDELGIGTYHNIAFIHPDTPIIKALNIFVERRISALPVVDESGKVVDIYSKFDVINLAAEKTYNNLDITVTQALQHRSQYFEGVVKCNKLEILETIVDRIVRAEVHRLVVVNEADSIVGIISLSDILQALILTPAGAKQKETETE
Assay: AMPK in vitro activation assay (HTRF)
Assay type: biochemical
Conditions: for EC50: HTRF, recombinant human α2β1γ2 AMPK, 200 μM ATP, biotinylated ACC-CREBp peptide, repeat determinations on separate lines; for Emax: potentiation of AMPK activity as percent over the basal signal (without compound)
Procedure, shortened: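 Sf21-expressed, Ni-NTA partially purified α2β1γ2 complex preincubated 30 min at room temperature with compound (0.5% DMSO) in HEPES pH 7.0, MgCl2, DTT. Reaction was started with a solution holding 200 μM ATP and 2 or 0.08 μM biotinylated ACC-CREBp peptide, run 45 min at 37° C, then read by HTRF with anti-pS133-CREB; EC50 from percent over basal.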

| Compound | EC50 | Emax [%] |
| --- | --- | --- |
| Cc1cc(C(O)=C2C(=O)Nc3cc(C)c(-c4ccc(N5CCOCC5)cc4)cc32)on1 [Compound 31, 3-[1-Hydroxy-1-(3-methyl-isoxazol-5-yl)-methylidene]-6-methyl-5-(4-morpholin-4-yl-phenyl)-1,3-dihydro-indol-2-one] | 540 nM | 147 |
| COc1cccc(-c2ccc(-c3cc4c(cc3Cl)NC(=O)C4=C(O)c3cc(OC(C)C)no3)cc2)c1O [Compound 109, 6-chloro-3-[hydroxy-(3-isopropoxyisoxazol-5-yl)methylene]-5-[4-(2-hydroxy-3-methoxy-phenyl)phenyl]indolin-2-one] | 0.6 nM | 165 |
| COc1cc(C(O)=C2C(=O)Nc3cc(Cl)c(-c4ccc(N5CCC(O)C5)cc4)cc32)on1 (stereo not drawn) [Compound 156, 6-chloro-3-[hydroxy-(3-methoxyisoxazol-5-yl)methylene]-5-[4-(3-hydroxypyrrolidin-1-yl)phenyl]indolin-2-one] | 2 nM | 229 |
| Cc1cc(C(O)=C2C(=O)Nc3cc(Cl)c(-c4ccc(N5CCOCC5)cc4)cc32)no1 [Compound 28, 6-Chloro-3-[1-hydroxy-1-(5-methyl-isoxazol-3-yl)-methylidene]-5-(4-morpholin-4-yl-phenyl)-1,3-dihydro-indol-2-one] | 130 nM | 150 |
| COc1ccc(C(O)=C2C(=O)Nc3cc(Cl)c(-c4ccc(C5(CO)CC5)cc4)cc32)cn1 [Compound 116, 6-chloro-3-[hydroxy-(6-methoxy-3-pyridyl)methylene]-5-[4-[1-(hydroxymethyl)cyclopropyl]phenyl]indolin-2-one hydrochloride] | 0.3 nM and 0.8 nM |  |
| COc1cc(C(O)=C2C(=O)Nc3cc(F)c(-c4ccc(-c5cccc(OC)c5O)cc4)cc32)on1 [Compound 71, 6-Fluoro-5-(2′-hydroxy-3′-methoxy-biphenyl-4-yl)-3-[1-hydroxy-1-(3-methoxy-isoxazol-5-yl)methylidene]-1,3-dihydro-indol-2-one] | 2 nM | 158 |
| Cc1cc(C(O)=C2C(=O)Nc3cc(Cl)c(-c4ccc(C#N)cc4)cc32)on1 [Compound 38, 4-{6-Chloro-3-[1-hydroxy-1-(3-methyl-isoxazol-5-yl)-methylidene]-2-oxo-2,3-dihydro-1H-indol-5-yl}-benzonitrile] | 700 nM | 133 |
| O=C1Nc2cc(Cl)c(-c3ccc(N4CCOCC4)cc3)cc2C1=C(O)c1cccc(C(F)F)c1 [Compound 39, 6-Chloro-3-[1-(3-difluoromethyl-phenyl)-1-hydroxy-methylidene]-5-(4-morpholin-4-yl-phenyl)-1,3-dihydro-indol-2-one] | 620 nM | 168 |
| COc1cc(C(O)=C2C(=O)Nc3cc(Cl)c(-c4ccc(OCc5cccnc5)cc4)cc32)on1 [Compound 100, 6-chloro-3-[hydroxy-(3-methoxyisoxazol-5-yl)methylene]-5-[4-(3-pyridylmethoxy)phenyl]indolin-2-one] | 36 nM | 159 |
| COc1cc(C(O)=C2C(=O)Nc3cc(Cl)c(-c4ccc(C5CCN(CC(F)(F)F)C5)cc4)cc32)on1 (stereo not drawn) [Compound 167, 6-chloro-3-[hydroxy-(3-methoxyisoxazol-5-yl)methylene]-5-[4-[1-(2,2,2-trifluoroethyl)pyrrolidin-3-yl]phenyl]indolin-2-one hydrochloride] | 117 nM | 156 |
| O=C1Nc2cc(Cl)c(-c3ccc(C4CC(O)C4)cc3)cc2C1=C(O)c1ccc(F)cc1F (stereo not drawn) [Compound 155, 6-chloro-3-[(2,4-difluorophenyl)hydroxy-methylene]-5-[4-(3-hydroxycyclobutyl)phenyl]indolin-2-one] | 60 nM | 131 |

Second part, the compound after the results:

| EC50 | Emax [%] | Compound |
| --- | --- | --- |
| 6 nM | 141 | COc1cc(F)c(C(O)=C2C(=O)Nc3cc(Cl)c(-c4ccc(N5CCOCC5)cc4)cc32)cc1F [Compound 108, 6-chloro-3-[(2,5-difluoro-4-methoxy-phenyl)hydroxy-methylene]-5-(4-morpholinophenyl)indolin-2-one] |
| 1 nM | 151 | Cc1cc(C(O)=C2C(=O)Nc3cc(Cl)c(-c4ccc(C5(CO)CC5)cc4F)cc32)on1 [Compound 85, 6-chloro-5-[2-fluoro-4-[1-(hydroxymethyl)cyclopropyl]phenyl]-3-[hydroxy-(3-methylisoxazol-5-yl)methylene]indolin-2-one] |
| 0.5 nM | 130 | COc1cc(C(O)=C2C(=O)Nc3cc(Cl)c(-c4ccc(C5(CO)CC5)cc4)cc32)ccn1 [Compound 158, 6-chloro-3-[hydroxy-(2-methoxy-4-pyridyl)methylene]-5-[4-[1-(hydroxymethyl)cyclopropyl]phenyl]indolin-2-one] |
| 12 nM and 5 nM |  | Cc1cc(C(O)=C2C(=O)Nc3cc(Cl)c(-c4ccc(N5CCOCC5)cc4)cc32)sn1 [Compound 13, 6-Chloro-3-[1-hydroxy-1-(3-methyl-isothiazol-5-yl)-methylidene]-5-(4-morpholin-4-yl-phenyl)-1,3-dihydro-indol-2-one] |
| 25 nM | 231 | COc1cc(C(O)=C2C(=O)Nc3cc(Cl)c(-c4ccc(OC5CCN(C)CC5)cc4)cc32)on1 [Compound 124, 6-chloro-3-[hydroxy-(3-methoxyisoxazol-5-yl)methylene]-5-[4-[(1-methyl-4-piperidyl)oxy]phenyl]indolin-2-one hydrochloride] |
| 220 nM | 170 | O=C1Nc2cc(Cl)c(-c3ccc(N4CCOCC4)cc3)cc2C1=C(O)c1ccccc1 [Compound 43, 6-Chloro-3-[1-hydroxy-1-phenyl-methylidene]-5-(4-morpholin-4-yl-phenyl)-1,3-dihydro-indol-2-one] |
| 52 nM | 288 | COc1cc(C(O)=C2C(=O)Nc3cc(Cl)c(-c4ccc(OC5CCOCC5)cc4)cc32)on1 [Compound 128, 6-chloro-3-[hydroxy-(3-methoxyisoxazol-5-yl)methylene]-5-(4-tetrahydropyran-4-yloxyphenyl)indolin-2-one] |
| 7 nM | 203 | COc1cc(C(O)=C2C(=O)Nc3cc(Cl)c(-c4ccc(C5(O)CCOCC5)cc4)cc32)on1 [Compound 89, 6-chloro-3-[hydroxy-(3-methoxyisoxazol-5-yl)methylene]-5-[4-(4-hydroxytetrahydropyran-4-yl)phenyl]indolin-2-one] |
